Experiments:
[1] = target: D-apiose dehydrogenase (B9JK80) (Martinezella rhizogenes, UniProt B9JK80); test: NADH formation, […] nm; assay type: biochemical; conditions: 1.5 mM NAD+; 50 mM Tris-HCl pH 8.5; 25 °C; furanose D-apiose
[2] = target: D-apionate lactonase / D-apionolactonase (A6X3G3, "hypothetical" protein) (Brucella anthropi, UniProt A6X3G3)
D-apionate lactonase / D-apionolactonase (A6X3G3, "hypothetical" protein), sequence (A6X3G3 whole entry, looked up, one chain of several): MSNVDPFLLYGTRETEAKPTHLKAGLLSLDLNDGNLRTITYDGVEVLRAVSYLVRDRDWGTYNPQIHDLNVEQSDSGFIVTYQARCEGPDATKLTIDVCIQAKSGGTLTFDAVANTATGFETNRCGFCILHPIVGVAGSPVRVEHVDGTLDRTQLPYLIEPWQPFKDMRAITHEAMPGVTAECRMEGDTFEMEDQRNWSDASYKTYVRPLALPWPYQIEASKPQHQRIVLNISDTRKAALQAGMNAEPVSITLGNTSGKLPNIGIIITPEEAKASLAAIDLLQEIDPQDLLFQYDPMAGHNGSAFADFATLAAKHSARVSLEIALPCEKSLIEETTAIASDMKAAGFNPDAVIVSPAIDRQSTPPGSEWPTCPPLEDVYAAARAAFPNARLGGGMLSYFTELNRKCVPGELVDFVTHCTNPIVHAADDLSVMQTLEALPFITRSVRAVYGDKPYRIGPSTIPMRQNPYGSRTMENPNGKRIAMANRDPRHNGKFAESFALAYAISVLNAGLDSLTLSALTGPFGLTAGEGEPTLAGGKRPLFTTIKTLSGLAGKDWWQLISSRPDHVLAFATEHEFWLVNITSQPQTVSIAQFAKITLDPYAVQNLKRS

D-apiose dehydrogenase (B9JK80), sequence (B9JK80 whole entry): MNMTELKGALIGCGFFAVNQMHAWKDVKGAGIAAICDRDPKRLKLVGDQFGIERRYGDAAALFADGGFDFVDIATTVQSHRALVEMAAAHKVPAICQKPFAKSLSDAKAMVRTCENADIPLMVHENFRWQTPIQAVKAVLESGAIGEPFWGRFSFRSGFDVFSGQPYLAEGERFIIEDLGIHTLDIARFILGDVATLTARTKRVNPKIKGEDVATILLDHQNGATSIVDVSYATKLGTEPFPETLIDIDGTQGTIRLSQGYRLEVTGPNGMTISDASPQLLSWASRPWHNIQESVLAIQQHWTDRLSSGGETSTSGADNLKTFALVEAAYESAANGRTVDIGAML

| Structure (SMILES) | KM [1] | 1H NMR, D-apionolactone generated in situ by B9JK80 [2] |
| --- | --- | --- |
| O=C[C@H](O)C(O)(CO)CO [D-apiose] | (B9JK80) catalyzed oxidation of D-apiose to D-apionolactone using NAD^+ | – |
| O=C1OCC(O)(CO)[C@H]1O (stereo partly drawn) [D-apionolactone] | – | it hydrolyzed D-apionolactone to D-apionate |

From publication PMC6435334 (Nature chemical biology, 2018)
